Experimental data published in patent publication US8710038B2, “Pyrazole kinase modulators and methods of use” (Exelixis, Inc., priority 2004, dated 2014).

Experiments:
[1] = target: EGFR (Homo sapiens, UniProt P00533); assay: EGFR kinase inhibition assay; assay type: biochemical
Experimental: (§1) Kinase activity and compound inhibition are investigated using one or more of the three assay formats described below. The ATP concentrations for each assay are selected to be close to the Michaelis-Menten constant (KM) for each individual kinase. Dose-response experiments are performed at 10 different inhibitor concentrations in a 384-well plate format. The data are fitted to four-parameter equation (2) below; where Y is the observed signal, X is the inhibitor concentration, Min is the background signal in the absence of enzyme (0% enzyme activity), Max is the signal in the absence of inhibitor (100% enzyme activity), IC50 is the inhibitor concentration at 50% enzyme inhibition and H represents the empirical Hill's slope to measure the cooperativity. Typically H is close to unity. Y=Min+(Max−Min)/(1+(X/IC50)^H) Equation (2) ^33P Phosphoryl Transfer Assay: […]
(§2) Greiner 384-well white, clear bottom, high binding plates are coated with 2 μg/well of protein or peptide substrate in a 50 μL volume overnight at ambient temperature. The coating buffer typically contains 40 μg/mL substrate, 22.5 mM Na2CO3, 27.5 mM NaHCO3, 150 mM NaCl and 3 mM NaN3. The coating solution is aspirated and the plates are washed once with 50 μL of assay buffer and padded dry. Subsequently compounds and enzymes are mixed with γ^33P-ATP (3.3 μCi/nmol) in a total volume of 20 uL in suitable assay buffers. The mixture is incubated at ambient temperature for 1.5-2.5 hrs and terminated by aspiration using a Molecular Devices EMBLA 96-head plate washer. The plates are subsequently washed 6-12 times with PBST or TBS buffer. Scintillation fluid (50 μl/well) is then added, the plates are sealed and activity assessed by liquid scintillation spectrometry using a Perkin Elmer MicroBeta TriLux.
(§3) In the LCCA assays, kinase activity is measured as the percent ATP consumed following the kinase reaction using luciferase-luciferin-coupled chemiluminescence. Greiner 384-well white, clear bottom, medium-binding plates are used for LCCA. Briefly, the kinase reaction is initiated by mixing compounds, ATP and kinase in a 20 uL volume. The mixture is incubated at ambient temperature for 2-4 hrs. At the end of the kinase reaction, a 20 uL luciferase-luciferin mix is added and the chemiluminescent signal is read using a Wallac Victor^2 reader. The luciferase-luciferin mix consists of 50 mM HEPES, pH 7.8, 8.5 ug/mL oxalic acid (pH 7.8), 5 (or 50) mM DTT, 0.4% Triton X-100, 0.25 mg/mL coenzyme A, 63 uM AMP, 28 ug/mL luciferin and 40,000 units of light/mL luciferase. For the LCCA assays, total ATP consumption has been standardized to 25-45% and the IC50 values correlates well with those determined by radiometric assays.
(§4) AlphaScreen technology is a proximity assay which utilizes the increase in fluorescent signal occurring when donor and acceptor beads are close in proximity. Biotinylated poly(Glu,Tyr) 4:1 is used as the kinase substrate, in conjunction with streptavidin-coated donor beads and anti-phosphortyrosine antibody PY100-coated acceptor beads. Upon phosphorylation, the peptide substrate can bind to both donor and acceptor beads giving rise to an increase in fluorescence. Compounds, ATP, biotinylated poly(Glu, Tyr) and kinases are mixed in a volume of 20 uL for 1 hr at ambient temperature using Greiner 384-well white clear bottom medium binding plates. Following incubation a 10 uL solution containing […] AlphaScreen beads, 75 mM Hepes, pH 7.4, 300 mM NaCl, 120 mM EDTA, 0.3% BSA and 0.03% Tween-20 is added to each well. After 2-16 hr incubation of the beads, plates are read in a Perkin Elmer AlphaQuest reader. The IC50 values correlates well with those of radiometric assays.

[2] = target: T1, flt-3 (Homo sapiens, UniProt P36888); assay: flt-3 Luciferase-Coupled Chemiluminescent Kinase assay (LCCA); assay type: biochemical
T1 construct: baculovirus expressed human Flt-3 kinase domain R571-S993
T1 sequence (P36888 571-993): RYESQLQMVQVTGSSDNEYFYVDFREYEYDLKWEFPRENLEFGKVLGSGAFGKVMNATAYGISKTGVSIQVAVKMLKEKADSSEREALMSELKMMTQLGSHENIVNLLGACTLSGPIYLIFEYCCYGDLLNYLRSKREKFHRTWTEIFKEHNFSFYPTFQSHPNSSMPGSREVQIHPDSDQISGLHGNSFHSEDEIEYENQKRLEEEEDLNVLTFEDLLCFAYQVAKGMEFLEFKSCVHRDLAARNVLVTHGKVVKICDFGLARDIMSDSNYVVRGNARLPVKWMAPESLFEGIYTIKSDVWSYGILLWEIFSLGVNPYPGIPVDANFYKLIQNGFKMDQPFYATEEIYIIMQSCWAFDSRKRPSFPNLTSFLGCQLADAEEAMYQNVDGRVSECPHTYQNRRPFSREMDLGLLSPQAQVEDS
Experimental: as §3
Flt-3 biochemical activity was assessed using a Luciferase-Coupled Chemiluminescent Kinase assay (LCCA) format. Kinase activity was measured as the percent ATP remaining following the kinase reaction. Remaining ATP was detected by luciferase-luciferin-coupled chemiluminescence. Specifically, the reaction was initiated by mixing test compounds, 5 μM ATP, 3 μM poly-EY and 5 nM Flt-3 (baculovirus expressed human Flt-3 kinase domain R571-S993) in a 20 uL assay buffer (20 mM Tris-HCL pH7.5, 10 mM MgCl2, 0.01% Triton X-100, 1 mM DTT, 2 mM MnCl2). The mixture is incubated at ambient temperature for 3 hours after which 20 uL luciferase-luciferin mix is added and the chemiluminescent signal read using a Wallac Victor^2 reader. The luciferase-luciferin mix consists of 50 mM HEPES, pH 7.8, 8.5 ug/mL oxalic acid (pH 7.8), 5 (or 50) mM DTT, 0.4% Triton X-100, 0.25 mg/mL coenzyme A, 63 uM AMP, 28 ug/mL luciferin and 40,000 units of light/mL luciferase.

[3] = target: T2, EphB4 (Homo sapiens, UniProt P54760); assay: EphB4 kinase inhibition assay; assay type: biochemical
T2 sequence (P54760 16-987): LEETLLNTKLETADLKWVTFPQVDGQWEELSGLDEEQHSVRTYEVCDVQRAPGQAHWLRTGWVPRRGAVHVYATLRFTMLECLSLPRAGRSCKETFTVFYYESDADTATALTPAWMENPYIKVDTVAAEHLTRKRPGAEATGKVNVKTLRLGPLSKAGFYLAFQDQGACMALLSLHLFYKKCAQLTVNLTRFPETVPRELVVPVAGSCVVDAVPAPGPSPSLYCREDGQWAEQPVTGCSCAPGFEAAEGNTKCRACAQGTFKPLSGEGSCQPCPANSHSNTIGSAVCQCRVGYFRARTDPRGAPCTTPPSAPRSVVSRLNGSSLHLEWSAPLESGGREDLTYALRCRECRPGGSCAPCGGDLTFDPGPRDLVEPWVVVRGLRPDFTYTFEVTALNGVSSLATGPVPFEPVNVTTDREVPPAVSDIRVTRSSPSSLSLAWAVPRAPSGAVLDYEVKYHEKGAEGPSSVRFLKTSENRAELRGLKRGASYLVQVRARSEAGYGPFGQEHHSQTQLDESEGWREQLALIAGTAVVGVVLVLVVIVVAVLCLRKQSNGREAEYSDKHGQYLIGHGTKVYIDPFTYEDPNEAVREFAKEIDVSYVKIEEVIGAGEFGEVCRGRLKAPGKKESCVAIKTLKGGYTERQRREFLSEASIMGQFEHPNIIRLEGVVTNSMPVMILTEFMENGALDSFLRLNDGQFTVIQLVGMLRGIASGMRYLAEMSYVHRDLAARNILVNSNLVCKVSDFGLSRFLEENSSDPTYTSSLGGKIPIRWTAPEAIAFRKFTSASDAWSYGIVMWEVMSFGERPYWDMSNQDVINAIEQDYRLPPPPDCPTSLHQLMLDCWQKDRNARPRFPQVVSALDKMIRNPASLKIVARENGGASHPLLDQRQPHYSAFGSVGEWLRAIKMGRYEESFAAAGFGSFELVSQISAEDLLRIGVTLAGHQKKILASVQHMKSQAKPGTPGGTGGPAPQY
Experimental: as §1, §2, §3, §4

[4] = target: c-Kit (Homo sapiens, UniProt P10721); assay: c-Kit biochemical assay (AlphaScreen)
Sequence of c-Kit (P10721 26-976): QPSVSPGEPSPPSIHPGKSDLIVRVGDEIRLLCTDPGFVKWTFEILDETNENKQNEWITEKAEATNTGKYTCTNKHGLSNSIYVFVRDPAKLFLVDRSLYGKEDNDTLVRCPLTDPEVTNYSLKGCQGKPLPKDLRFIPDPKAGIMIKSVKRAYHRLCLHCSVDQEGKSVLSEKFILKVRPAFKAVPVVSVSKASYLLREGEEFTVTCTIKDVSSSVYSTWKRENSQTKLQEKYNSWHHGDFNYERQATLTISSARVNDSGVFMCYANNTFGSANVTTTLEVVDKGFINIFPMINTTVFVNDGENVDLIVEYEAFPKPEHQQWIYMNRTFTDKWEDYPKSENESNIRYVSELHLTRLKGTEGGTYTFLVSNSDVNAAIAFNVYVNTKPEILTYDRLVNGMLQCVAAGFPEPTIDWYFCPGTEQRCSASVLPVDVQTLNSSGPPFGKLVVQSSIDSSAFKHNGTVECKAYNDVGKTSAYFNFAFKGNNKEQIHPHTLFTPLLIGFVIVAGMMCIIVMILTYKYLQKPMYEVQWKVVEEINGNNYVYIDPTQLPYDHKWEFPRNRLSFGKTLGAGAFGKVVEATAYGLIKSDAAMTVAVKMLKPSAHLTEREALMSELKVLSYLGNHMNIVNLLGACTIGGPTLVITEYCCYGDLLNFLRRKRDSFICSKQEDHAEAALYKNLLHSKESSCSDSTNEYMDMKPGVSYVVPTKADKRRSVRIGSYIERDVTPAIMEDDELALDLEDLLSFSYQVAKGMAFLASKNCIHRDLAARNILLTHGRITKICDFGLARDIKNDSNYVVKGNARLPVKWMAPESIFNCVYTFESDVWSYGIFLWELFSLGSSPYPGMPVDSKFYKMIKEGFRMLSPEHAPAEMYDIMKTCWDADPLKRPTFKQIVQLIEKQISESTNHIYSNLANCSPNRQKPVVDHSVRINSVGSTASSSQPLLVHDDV
Source text: as §4
c-Kit biochemical activity was assessed using AlphaScreen™ (Perkin Elmer) technology, described above. Test compounds, ATP, biotinylated poly(Glu, Tyr) and c-Kit kinase were combined in a volume of 20 μL in a 384-well white, medium binding microtiter plate (Greiner). Reaction mixtures were incubated for 1 hr at ambient temperature. Reactions were quenched by addition of 10 uL of […] AlphaScreen bead suspension containing 75 mM Hepes, pH 7.4, 300 mM NaCl, 120 mM EDTA, 0.3% BSA and 0.03% Tween-20. After 16 hr incubation at ambient temperature plates were read using an AlphaQuest reader (Perkin Elmer).

Sequence of EGFR (P00533 25-1210, species assumed): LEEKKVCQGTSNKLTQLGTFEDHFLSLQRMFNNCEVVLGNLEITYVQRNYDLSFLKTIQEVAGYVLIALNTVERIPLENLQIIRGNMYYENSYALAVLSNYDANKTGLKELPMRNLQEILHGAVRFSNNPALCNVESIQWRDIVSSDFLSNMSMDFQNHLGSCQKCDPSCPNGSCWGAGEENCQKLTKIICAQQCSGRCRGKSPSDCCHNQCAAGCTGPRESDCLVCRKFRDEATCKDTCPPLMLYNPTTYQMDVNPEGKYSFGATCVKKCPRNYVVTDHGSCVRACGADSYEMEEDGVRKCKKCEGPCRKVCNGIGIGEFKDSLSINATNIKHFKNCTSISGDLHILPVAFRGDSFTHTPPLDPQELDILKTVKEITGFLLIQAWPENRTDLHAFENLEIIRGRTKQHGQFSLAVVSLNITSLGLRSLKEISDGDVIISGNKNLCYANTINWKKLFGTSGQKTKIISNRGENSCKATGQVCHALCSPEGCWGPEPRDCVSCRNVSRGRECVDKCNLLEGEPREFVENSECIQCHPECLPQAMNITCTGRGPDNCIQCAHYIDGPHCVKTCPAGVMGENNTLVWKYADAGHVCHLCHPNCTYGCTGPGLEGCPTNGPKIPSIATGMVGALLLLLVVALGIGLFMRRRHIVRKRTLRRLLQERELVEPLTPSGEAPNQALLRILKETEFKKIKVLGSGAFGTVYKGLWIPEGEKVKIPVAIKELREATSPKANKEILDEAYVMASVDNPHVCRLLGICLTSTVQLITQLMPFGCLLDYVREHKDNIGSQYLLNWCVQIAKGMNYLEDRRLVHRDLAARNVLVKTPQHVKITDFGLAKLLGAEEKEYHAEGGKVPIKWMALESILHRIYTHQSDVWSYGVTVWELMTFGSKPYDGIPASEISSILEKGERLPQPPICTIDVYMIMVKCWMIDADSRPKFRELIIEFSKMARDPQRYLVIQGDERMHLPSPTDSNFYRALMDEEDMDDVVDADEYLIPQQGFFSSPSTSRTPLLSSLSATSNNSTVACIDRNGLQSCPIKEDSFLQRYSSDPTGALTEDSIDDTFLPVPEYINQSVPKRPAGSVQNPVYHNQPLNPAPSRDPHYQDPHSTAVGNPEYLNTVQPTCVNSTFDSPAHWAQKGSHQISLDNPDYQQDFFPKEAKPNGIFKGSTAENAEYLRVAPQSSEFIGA

| Structure (SMILES) | IC50 [1] | IC50 [2] | IC50 [3] | IC50 [4] |
| --- | --- | --- | --- | --- |
| CN1CCN(c2ccc3nc(-c4cc(/C=C/c5ccc(O)cc5)[nH]n4)[nH]c3c2)CC1 [Entry 1, 4-((E)-2-{3-[6-(4-methylpiperazin-1-yl)-1H-benzimidazol-2-yl]-1H-pyrazol-5-yl}ethenyl)phenol] | > 5 µM | < 0.05 µM | 0.5 to 5 µM | < 0.05 µM |
| CCN1CCN(c2ccc3[nH]c(-c4cc(-c5ccc(NC(=O)Nc6ccc(Cl)c(C(F)(F)F)c6)cc5)[nH]n4)nc3c2)CC1 [Entry 2, N-[4-chloro-3-(trifluoromethyl)phenyl]-N′-(4-{3-[5-(4-ethylpiperazin-1-yl)-1H-benzimidazol-2-yl]-1H-pyrazol-5-yl}phenyl)urea] | > 5 µM | < 0.05 µM | > 5 µM | < 0.05 µM |
| CCc1cccc(NC(=O)Nc2ccc(-c3cc(-c4nc5cc(N6CCN(CC)CC6)ccc5[nH]4)n[nH]3)cc2)c1 [Entry 3, N-(3-ethylphenyl)-N′-(4-{3-[5-(4-ethylpiperazin-1-yl)-1H-benzimidazol-2-yl]-1H-pyrazol-5-yl}phenyl)urea] | > 5 µM | < 0.05 µM | 0.5 to 5 µM | < 0.05 µM |
| CCN1CCN(c2ccc3[nH]c(-c4cc(-c5ccc(NC(=O)Nc6cccc(C(F)(F)F)c6)cc5)[nH]n4)nc3c2)CC1 [Entry 4, N-(4-{3-[5-(4-ethylpiperazin-1-yl)-1H-benzimidazol-2-yl]-1H-pyrazol-5-yl}phenyl)-N′-[3-(trifluoromethyl)phenyl]urea] | > 5 µM | < 0.05 µM | 0.5 to 5 µM | < 0.05 µM |
| CC(=O)c1cccc(NC(=O)Nc2ccc(-c3cc(-c4nc5cc(N6CCN(C)CC6)ccc5[nH]4)n[nH]3)cc2)c1 [Entry 5, N-(3-acetylphenyl)-N′-(4-{3-[5-(4-methylpiperazin-1-yl)-1H-benzimidazol-2-yl]-1H-pyrazol-5-yl}phenyl)urea] | > 5 µM | < 0.05 µM | 0.5 to 5 µM | < 0.05 µM |
| CN1CCN(c2ccc3[nH]c(-c4cc(-c5ccc(NC(=O)Nc6ccc(Cl)c(Cl)c6)cc5)[nH]n4)nc3c2)CC1 [Entry 6, N-(3,4-dichlorophenyl)-N′-(4-{3-[5-(4-methylpiperazin-1-yl)-1H-benzimidazol-2-l]-1H-pyrazol-5-yl}phenyl)urea] | > 5 µM | < 0.05 µM | > 5 µM | < 0.05 µM |
| CN1CCN(c2ccc3nc(-c4cc(-c5ccc(NC(=O)Nc6cccc(Br)c6)cc5)[nH]n4)[nH]c3c2)CC1 [Entry 7, N-(3-bromophenyl)-N′-(4-{3-[6-(4-methylpiperazin-1-yl)-1H-benzimidazol-2-yl]-1H-pyrazol-5-yl}phenyl)urea] | > 5 µM | < 0.05 µM | > 5 µM | < 0.05 µM |
| CN1CCN(c2ccc3[nH]c(-c4cc(-c5ccc(NC(=O)Nc6ccc(F)c(C(F)(F)F)c6)cc5)[nH]n4)nc3c2)CC1 [Entry 8, N-[4-fluoro-3-(trifluoromethyl)phenyl]-N′-(4-{3-[5-(4-methylpiperazin-1-yl)-1H-benzimidazol-2-yl]-1H-pyrazol-5-yl}phenyl)urea] | > 5 µM | < 0.05 µM | > 5 µM | < 0.05 µM |
| CN1CCN(c2ccc3[nH]c(-c4cc(-c5ccc(NC(=O)Nc6cccc(Cl)c6)cc5)[nH]n4)nc3c2)CC1 [Entry 10, N-(3-chlorophenyl)-N′-(4-{3-[5-(4-methylpiperazin-1-yl)-1H-benzimidazol-2-yl]-1H-pyrazol-yl}phenyl)urea] |  | < 0.05 µM | > 5 µM | < 0.05 µM |
| O=C(Nc1ccccc1)Nc1ccc(-c2cc(-c3nc4ccccc4[nH]3)n[nH]2)cc1 [Entry 33, N-{4-[3-(1H-benzimidazol-2-yl)-1H-pyrazol-5-yl]phenyl}-N′-phenylurea] | > 5 µM |  | > 5 µM | < 0.05 µM |
